According to patent publication US6472526B1, “Imidazole derivatives having an inhibitory activity for farnesyl transferase and process for preparation thereof” (LG Chemical Ltd., priority 1997, dated 2002):

Assays:
[1] = molecular target: T1, Ras farnesyl transferase (Rattus norvegicus, UniProt Q02293+Q04631); assay: In vivo (cellular) inhibitory activity for Ras farnesyl transferase, Rat2 cell line transformed with fused protein of H-Ras substituted with polybasic lysine domain at C-terminus of K-Ras; format: cell-based; conditions: Rat2 cell line transformed with H-Ras fused with polybasic lysine domain of K-Ras C-terminus; concentration inhibiting 50% of farnesyl bonding; read-out: K-Ras CIC50
T1 construct: endogenous in cells; host or cells: Rat2 fibroblasts transformed with H-Ras or with an H-Ras/K-Ras C-terminus fusion
Protocol: (§1) In the present experiment, Rat2 cell line which expresses C-Harvey-Ras protein having transforming activity and Rat2 cell line (Korean patent application No. 97-14409) which is transformed with fused protein of H-Ras substituted with polybasic lysine domain at C-terminus of K-Ras were used. The experiment was performed by the modified Declue's method (Declue. J. E. et al., Cancer Research, 1991, 51, 712). Hereinafter, the experimental method will be described in more detail.
(§2) 3×10^5 cells of transformed Rat2 fibroblast cell line were sprayed on 60 mm cell cultivation dish and cultivated for 48 hours in a cell incubator at 37° C. and after 50% or more of density was reached, it was treated with the test compounds. The compound according to the present invention dissolved in dimethylsulfoxide (DMSO) was used. 1% concentration of dimethylsulfoxide was used in both control and test groups. After 4 hours from the treatment with the compound, methionine labeled with 150 μCi of radioactive isotope [^35S] per 1 ml of medium was added and after cultivating for 20 hours, the cells were, washed with physiological saline water. The cells were lysed using 1 ml of cold cell lysis buffer solution (50 mM of Sodium HEPES buffer solution containing 5mM of magnesium chloride, 1 mM of DTT, 1% NP 40, 1 mM of EDTA, 1 mM of PMSF, 2 μM of leupeptin, 2 μM of pepstatin A and 2 μM of antipain) and the supernatant wherein the cells were lysed was obtained by high-velocity centrifugation of 12,000 g×5 minutes. The amount of radioisotope in the supernatant was measured and standardized to obtain a quantitative result in immunoprecipitation reaction and then, Y13-259, a monoclonal antibody specifically binding to Ras protein (Furth, M. E. et al., J. Virol, 1982, 43, 294) was added and reacted for 15 hours at 4° C. Protein A(combined with goat anti-murine immunoglobulin antibody)-agarose suspension was added to the solution and reacted for 1 hour at 4° C. and then, to remove the unspecific binding product, immunoprecipitates were washed with a buffer solution (50 mM Tris chloride buffer solution containing 50 mM of sodium chloride, 0.5% of sodium dioxycolate, 0.5% of NP 40 and 0.1% of SDS). The precipitates were added to a buffer solution for electrophoresis and boiled and then, electrophoresis was performed using 13.5% of SDS polyacrylamide gel. After electrophoresis, the gel was fixed and dried. Then, the gel was exposed to X-ray film, developed printed. From the result of the experiment, intensities of band of in combined with or without farnesyl of Ras protein were measured, the concentration of the test compound inhibiting 50% of farnesyl bonding was defined as […], an in vivo Ras farnesyl transferase inhibitory activity.

[2] = molecular target: T2, Ras farnesyl transferase (Homo sapiens, UniProt P49354+P49356); assay: In vitro inhibitory activity for Ras farnesyl transferase, K-Ras substrate; format: biochemical; conditions: in vitro farnesyl transferase assay, K-Ras; read-out: K-Ras IC50
T2 construct: made in house

[3] = molecular target: T2, Ras farnesyl transferase; assay: In vitro inhibitory activity for Ras farnesyl transferase, H-Ras substrate; format: biochemical; conditions: recombinant farnesyl transferase 4.5 nM, Ras substrate protein 1.5 μM, tritium-farnesylpyrophosphate 0.15 μM, 30 minutes at 37° C.; read-out: H-Ras IC50
Protocol: In the present experiment, Ras farnesyl transferase produced by genetic recombination techniques according to the improved Pompliano's method (Pompliano et al., Biochemistry, 1992, 31, 3800) was used, and Ras substrate (Ras-CVLS) protein described in Korean Patent Appln. No. 97-14409 was used after it has been purified according to the known method (see, Chung et al., Biochimica et Biophysica Acta, 1992, 278, 1129).
The enzyme reaction was performed in 50 μl of 50 mM Sodium HEPES buffer solution containing 25 mM of potassium chloride, 25 mM of magnesium chloride, 10 mM of DTT and 50 μM of zinc chloride. 1.5 μM of Ras substrate protein, 0.15 μM of tritium-farnesylpyrophosphate and 4.5 nM of farnesyl transferase were used.
More specifically, in the initial step, farnesyl transferase was added to the above buffer solution, reaction was maintained for 30 minutes at 37° C. and then the reaction was stopped by adding 1 ml of ethanol solution containing 1M HCl. The formed precipitates were adsorbed to GF/B filter using Hopper harvestor(Hopper #FH 225V) for filter-binding, washed with ethanol, and then radioactivity of the dried filter was measured using LKB β counter. Enzyme titer was measured in the unsaturated state of substrate where the concentrations of Ras substrate protein and farnesyl transferase have quantitative relationship. The compound according to the present invention dissolved in dimethyl sulfoxide (DMSO) was added to the reaction solution in an amount of less than 5% of the total reaction solution, and then the enzyme inhibitory activity thereof was measured. The enzyme inhibitory activity was represented by percentage of the amount of farnesyl incorporated into the Ras substrate protein in the presence of the test compound to that in the absence of the test compound. IC50 of the test compound was defined as the concentration at which 50% of the enzyme activity was inhibited.

[4] = molecular target: T1, Ras farnesyl transferase; assay: In vivo (cellular) inhibitory activity for Ras farnesyl transferase, Rat2 cell line which expresses C-Harvey-Ras protein; format: cell-based; conditions: Rat2 cell line expressing C-Harvey-Ras; concentration inhibiting 50% of farnesyl bonding of Ras protein; read-out: H-Ras CIC50
Protocol: as §1, §2

Compound	IC50 [1]	IC50 [2]	IC50 [3]	IC50 [4]
1-(1-Decyl-1H-imidazol-5-yl)methyl-3-[N-(2-methoxyethyl)-N-methyl]carbamoyl-4-(naphthalen-1-yl-1H-pyrrole [Compound 119]	< 30000 nM	–	–	–
3-[N-(2-Methoxyethyl)-N-methyl]carbamoyl-4-(naphthalen-1-yl)-1-(1-octyl-1H-imidazol-5-yl)methyl-1H-pyrrole [Compound 118]	< 40000 nM	–	–	–
3-[N-(2-Methoxyethyl)N-methyl]carbamoyl-4-(naphthalen-1-yl)-1-(1-pentyl-1H-imidazol-5-yl)methyl-1H-pyrrole [Compound 117]	< 50000 nM	–	–	–
N#Cc1ccc(Cn2cncc2Cn2cc(C(=O)c3ccccc3)c(-c3cccc4ccccc34)c2)cc1 [Compound 75]	–	160 nM	5 nM	200 nM
N#Cc1ccc(Cn2cncc2Cn2cc(C(=O)c3ccc(Br)cc3)c(-c3cccc4ccccc34)c2)cc1 [Compound 77]	–	120 nM	4 nM	100 nM
COCCN(C)C(=O)c1cn(Cc2cncn2Cc2ccc(C#N)cc2)cc1-c1cccc2ccccc12 [Compound 110, 1-[1-(4-Cyanobenzyl)-1H-imidazol-5-yl]methyl-3-[N-(2-methoxyethyl)-N-methyl]carbamoyl-4-(naphthalen-1-yl)-1H-pyrrole]	–	1.5 nM	0.6 nM	8 nM
O=C(c1cn(Cc2cncn2Cc2ccc(Br)cc2)cc1-c1cccc2ccccc12)N1CCOCC1 [Compound 112, 1-[1-(4-Bromobenzyl)-1H-imidazol-5-yl]methyl-3-(morpholin-4yl)carbonyl-4-(naphthalen-1-yl)-1H-pyrrole]	–	6 nM	4 nM	15 nM
COCCN(C)C(=O)c1cn(Cc2cncn2CCC(C)C)cc1-c1cccc2ccccc12 [Compound 120]	< 20000 nM	–	–	–
COCCCn1cncc1Cn1cc(C(=O)N(C)CCOC)c(-c2cccc3ccccc23)c1 [Compound 122]	< 30000 nM	–	–	–
O=C(c1nc(Cc2cncn2Cc2ccc(Cl)cc2)sc1-c1cccc2ccccc12)N1CCOCC1 [Compound 146, 2-[1-(4-Chlorobenzyl)-1H-imidazol-5-ylmethyl]-4-(morpholin-4-yl)carbonyl-5-(naphthalen-1-yl)thiazole]	–	10000 nM	90 nM	–
Cn1cncc1Cn1cc(C(=O)N2CCOCC2)c(-c2cccc3ccccc23)n1 [Compound 163, 1-(1-Methyl-1H-imidazol-5-ylmethyl)-4-(morpholin-4-yl)carbonyl-3-(naphthalen-1-yl)-1H-pyrazole]	> 50000 nM	10000 nM	150 nM	–

Now from value to compound:

IC50 [1]	IC50 [2]	IC50 [3]	IC50 [4]	Compound
–	3.5 nM	1.1 nM	25 nM	COCCN(C)C(=O)c1cn(Cc2cncn2Cc2ccc3c(c2)OCO3)cc1-c1cccc2ccccc12 [Compound 1, 3-[N-(2-Methoxyethyl)-N-methyl]carbamoyl-1-[1-(3,4-methylenedioxybenzyl)-1H-imidazol-5-ylmethyl]-4-(naphthalen-1-yl)-1H-pyrrole]
10000 to 100000 nM	100 to 10000 nM	14 nM	–	CN1CCN(C(=O)c2cn(Cc3c[nH]cn3)cc2-c2cccc3ccccc23)CC1 [Compound 89]
< 40000 nM	–	–	–	COCCN(C)C(=O)c1cn(Cc2cncn2CCOC)cc1-c1cccc2ccccc12 [Compound 121, 1-[1-(2-Methoxyethyl)-1H-imidazol-5-yl]methyl-3-[N-(2-methoxyethyl)-N-methyl]carbamoyl-4-(naphthalen-1-yl)-1H-pyrrole]
< 40000 nM	–	–	–	CCOCCCn1cncc1Cn1cc(C(=O)N(C)CCOC)c(-c2cccc3ccccc23)c1 [Compound 123, 1-[1-(3-Ethoxypropyl)-1H-imidazol-5-yl]methyl-3-[N-(2-methoxyethyl)-N-methyl]carbamoyl-4-(naphthalen-1-yl)-1H-pyrrole]
< 20000 nM	–	–	–	COCCN(C)C(=O)c1cn(Cc2cncn2CCCOC(C)C)cc1-c1cccc2ccccc12 [Compound 124, 1-[1-(3-Isopropoxypropyl)-1H-imidazol-5-yl]methyl-3-[N-(2-methoxyethyl)-N-methyl]carbamoyl-4(naphthalen-1-yl)-1H-pyrrole]
> 50000 nM	–	380 nM	–	CCOC(=O)c1nc(Cc2cnc[nH]2)sc1-c1cccc2ccccc12 [Compound 144, 4-Ethoxycarbonyl-2-(1H-imidazol-5-ylmethyl)-5-(naphthalen-1-yl)thiazole]
–	30 nM	2 nM	50 nM	COCCN(C)C(=O)c1nc(Cc2cncn2Cc2ccc(Cl)cc2)sc1-c1cccc2ccccc12 [Compound 147, 2-[1-(4-Chlorobenzyl)-1H-imidazol-5-ylmethyl]-4-[N-(2-methoxy)ethyl-N-methylcarbamoyl]-5-(naphthalen-1-yl)thiazole]
> 50000 nM	> 50000 nM	5000 nM	–	O=C(c1sc(Cc2cncn2Cc2ccc(Cl)cc2)nc1-c1cccc2ccccc12)N1CCOCC1 [Compound 149, 2-[1-(4-Chlorobenzyl)-1H-imidazol-5-ylmethyl]-5-(morpholin-4-yl)carbonyl-4-(naphthalen-1-yl)thiazole]
> 50000 nM	> 50000 nM	4600 nM	–	COCCN(C)C(=O)c1sc(Cc2cncn2CC2CCN(C(=O)OCc3ccccc3)CC2)nc1-c1cccc2ccccc12 [Compound 151]
30000 nM	2000 nM	250 nM	–	O=C(OCc1ccccc1)N1CCC(Cn2cncc2Cn2cc(C(=O)N3CCOCC3)c(-c3cccc4ccccc34)n2)CC1 [Compound 158, 1-[1-(1-Benzyloxycarbonyl-piperidin-4-ylmethyl)-1H-imidazol-5-ylmethyl]-4-(morpholin-4-yl)carbonyl-3-(naphthalen-1-yl)-1H-pyrazole]
–	2000 nM	200 nM	–	O=C(c1cn(Cc2cncn2Cc2ccc(Cl)cc2)nc1-c1cccc2ccccc12)N1CCOCC1 [Compound 161, 1-[1-(4-Chlorobenzyl)-1H-imidazol-5-ylmethyl]-4-(morpholin-4-yl)carbonyl-3-(naphthalen-1-yl)-1H-pyrazole]
–	2000 nM	250 nM	–	N#Cc1ccc(Cn2cncc2Cn2cc(C(=O)N3CCOCC3)c(-c3cccc4ccccc34)n2)cc1 [Compound 162, 1-[1-(4-Cyanobenzyl)-1H-imidazol-5-ylmethyl]-4-(morpholin-4-yl)carbonyl-3-(naphthalen-1-yl)-1H-pyrazole]
